Like-named read-outs stand apart in the source and are kept apart here.
Tests used:
[1] = biological target: 5HT1D; settings: cited from earlier work
[2] = biological target: 5HT1D; settings: cited from earlier work; remark: listed apart in the source
[3] = biological target: 5HT5a receptor
[4] = system: 5HT5a receptor; remark: listed apart in the source
[5] = system: 5HT5a receptor; experiment: Saturation binding of radiolabelled serotonin ligands to membranes of Cos-7 cells expressing the 5HT5a receptor; parameters: species or system rat; settings: 10 minutes at 37° C., 50 mM Tris-HCl pH 7.4
Experimental: The specific binding is shown.
(§1) Radioactivity was measured with a γ counter.

[6] = system: 5HT5a receptor; experiment: [^125 I]-LSD binding to membranes of NIH-3T3 clones NS1 and NS4 expressing the 5HT5a receptor; parameters: species or system rat
Experimental: as §1
For this purpose, the recombinant expression vector described in 3. above was used. […] The transformant clones were selected in the presence of 0.5 mg of G418. The clones isolated were then amplified, and the total RNAs of these clones were prepared and analysed by Northern blotting for the expression of 5HT5a mRNA.
The membranes of the cells of these clones were then prepared and tested under the conditions described above for their capacity to bind some labelled serotonin ligands, and to determine the affinity of the receptors for the said ligands.
Different displacement experiments were then carried out (Table 1).

## CC(C)NCC(O)COc1cccc2[nH]ccc12 (racemic) [(±)Pindolol]
[1]; Calf caudate
  pKi 5HT1D (Calf caudate): 5.2
[2]
  pKi 5HT1D (rat cortex): < 5

## NCCc1c[nH]c2ccc(C(N)=O)cc12 [5-CT]
[1]; Calf caudate
  pKi 5HT1D (Calf caudate): 8.6
[2]
  pKi 5HT1D (rat cortex): 8.6

## NCCc1c[nH]c2ccc(O)cc12 [5-HT, 5-hydroxytryptamine]
[1]; Calf caudate
  pKi 5HT1D (Calf caudate): 8.4
[2]
  pKi 5HT1D (rat cortex): 8.7

## CCCN(CCC)C1CCc2cccc(O)c2C1 (stereo not drawn) [8-OH-DPAT]
[1]; Calf caudate
  pKi 5HT1D (Calf caudate): 5.9
[2]
  pKi 5HT1D (rat cortex): 6.6

## NC[C@H](O)c1ccc(O)c(O)c1 [(-)Norepinephrine]
[3]
  Ki: 1580 µM

## CN(C)CCc1c[nH]c2ccc(O)cc12 [Bufotenine]
[1]; Calf caudate
  pKi 5HT1D (Calf caudate): 8.1

## NCCc1ccc(O)c(O)c1 [Dopamine]
[3]
  Ki: 79.4 µM

## CN1C[C@H](C(=O)N[C@]2(C)O[C@@]3(O)[C@@H]4CCCN4C(=O)[C@H](Cc4ccccc4)N3C2=O)C=C2c3cccc4[nH]cc(c34)C[C@H]21 [Ergotamine]
[1]
  pKi 5HT1D (Calf caudate): 7.8
[4]
  pKi 5HT5 (Cos-7): 8.4

## O=C(c1ccc(F)cc1)C1CCN(CCn2c(=O)[nH]c3ccccc3c2=O)CC1 [Ketanserin]
[1]; Calf caudate
  pKi 5HT1D (Calf caudate): 5.7
[2]
  pKi 5HT1D (rat cortex): < 5
[3]
  Ki: 15.8 µM

## COc1ccc2[nH]cc(C3=CCNCC3)c2c1 [RU24969]
[1]; Calf caudate
  pKi 5HT1D (Calf caudate): 7.3

## CNS(=O)(=O)Cc1ccc2[nH]cc(CCN(C)C)c2c1 [Sumatriptan]
[1]; Calf caudate
  pKi 5HT1D (Calf caudate): 7.5

## FC(F)(F)c1cccc(N2CCNCC2)c1 [TFMPP]
[1]; Calf caudate
  pKi 5HT1D (Calf caudate): 6.2
[2]
  pKi 5HT1D (rat cortex): 6.6

## COC(=O)[C@@H]1[C@H]2C[C@H]3c4[nH]c5ccccc5c4CCN3C[C@@H]2CC[C@@H]1O [Yohimbine]
[1]
  pKi 5HT1D (Calf caudate): 7.1

## CCCN(CCC)C1CCc2cccc(O)c2C1 (stereo not drawn) [[^3 H]-8-OH-DPAT]
[5]
  binding of radiolabelled ligand to membranes of transfected Cos-7 cells: do not bind

## O=C(CCCN1CCC2(CC1)C(=O)NCN2c1ccccc1)c1ccc(F)cc1 [[^3 H]-spiperone]
[5]
  binding of radiolabelled ligand to membranes of transfected Cos-7 cells: do not bind

## CCN(CC)C(=O)[C@@H]1C=C2c3cccc4[nH]c([125I])c(c34)C[C@H]2N(C)C1 [[^125 I]-LSD]
[6]
  binding sites for [^125 I]-LSD on membranes of clones NS1 and NS4: high-affinity binding sites
[5]
  binding of radiolabelled ligand to membranes of transfected Cos-7 cells: possesses a saturable binding site
[5]; Cos-7 membranes, non-specific binding with 10 μM 5HT, FIG. 2
  Kd: 0.00034 µM

## CC(C)(C)NCC(O)COc1cccc2[nH]c(C#N)c([125I])c12 (stereo not drawn) [[^125 I]-cyanopindolol]
[5]
  binding of radiolabelled ligand to membranes of transfected Cos-7 cells: do not bind

Reference: patent US5807691A, “Polypeptides having serotonin receptor activity (5HT5A), nucleic acids coding for these polypeptides and uses thereof” (Institut National De La Sante et Da La Recherche Medicale, priority 1992, dated 1998)
